In ChEMBL document CHEMBL1201862, “PubChem BioAssay data set” (2004):
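Method: 48-hour compound exposure of cells in 96-well plates, five concentrations, linear interpolation of endpoints. GI50 marks 50% less growth.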 Activity calls are given as the source filed them. Cut-off read from the data, not from the text of the source: active = GI50 up to about 1.1 µM and inactive = higher.

Tests used:
Test in all cases: NCI anticancer screen, dose series, 48 h
RPMI-8226 = system: RPMI-8226
NCI-H23 = system: NCI-H23
IGROV-1 = system: IGROV-1
Hs-578T = system: Hs-578T
U-251 = system: U-251
NCI-H460 = system: NCI-H460
Malme-3M = system: Malme-3M
NCI-H522 = system: NCI-H522
HOP-92 = system: HOP-92
HCT-116 = system: HCT-116
SK-MEL-5 = system: SK-MEL-5
COLO 205 = system: COLO 205
SK-MEL-28 = system: SK-MEL-28
DU-145 = system: DU-145
OVCAR-3 = system: OVCAR-3
HOP-62 = system: HOP-62
RXF 393 = system: RXF 393
PC-3 = system: PC-3
MDA-MB-435 = system: MDA-MB-435
NCI-H226 = system: NCI-H226

In the case of `O=c1c2nc(-c3ccccc3)oc2n(-c2ccccc2)c(=O)n1-c1ccccc1`, the GI50 (RPMI-8226) is reported as > 46.5 µM (inactive), the GI50 (NCI-H23) is reported as 43.2 µM (inactive) and the GI50 (IGROV-1) is reported as 26.5 µM (inactive). The GI50 (Hs-578T) was 21.9 µM (inactive), the GI50 (U-251) was 19.3 µM (inactive) and the GI50 (NCI-H460) was 31.8 µM (inactive). The GI50 (Malme-3M) was > 31.6 µM (inactive), the GI50 (NCI-H522) was 21.4 µM (inactive) and the GI50 (HOP-92) was 14.4 µM (inactive). The GI50 (HCT-116) was 31.7 µM (inactive), the GI50 (SK-MEL-5) was 23.7 µM (inactive) and the GI50 (COLO 205) was > 46.5 µM (inactive). For the same compound, the GI50 (SK-MEL-28) was > 100 µM (inactive), the GI50 (DU-145) was 82.2 µM (inactive) and the GI50 (OVCAR-3) was 25.8 µM (inactive). For the same compound, the GI50 (HOP-62) was 17.5 µM (inactive), the GI50 (RXF 393) was 18.1 µM (inactive) and the GI50 (PC-3) was 44.4 µM (inactive). The GI50 (MDA-MB-435) was > 46.5 µM (inactive) and the GI50 (NCI-H226) was 31.8 µM (inactive).

For `[Se]=P(c1ccccc1)(c1ccccc1)c1ccc(C(c2ccccc2)=P(c2ccccc2)(c2ccccc2)c2ccccc2)cc1`, the GI50 (RPMI-8226) was 0.313 µM (active), the GI50 (NCI-H23) was 0.891 µM (active) and the GI50 (IGROV-1) was 0.773 µM (active). The GI50 (Hs-578T) was 0.435 µM (active), the GI50 (U-251) was 0.385 µM (active) and the GI50 (NCI-H460) was 1.28 µM (inactive). The GI50 (Malme-3M) was 0.499 µM (active), the GI50 (NCI-H522) was 0.33 µM (active) and the GI50 (HOP-92) was 0.357 µM (active). For the same compound, the GI50 (HCT-116) was 0.6 µM (active), the GI50 (SK-MEL-5) was 0.505 µM (active) and the GI50 (COLO 205) was 0.308 µM (active). The GI50 (SK-MEL-28) was 2.28 µM (inactive), the GI50 (DU-145) was 1.24 µM (inactive) and the GI50 (OVCAR-3) was 0.621 µM (active). For the same compound, the GI50 (HOP-62) was 1.13 µM (inactive), the GI50 (RXF 393) was 1.57 µM (inactive) and the GI50 (PC-3) was 0.8 µM (active). The GI50 (MDA-MB-435) was 0.671 µM (active) and the GI50 (NCI-H226) was 1.31 µM (inactive).

In the case of `COC(=O)C1C(O)C(C)C(O)C(C)C=C(C)C2=C3C(=C(C)C(=O)c4c(O)c(c(C)c(OC(C)=O)c43)NC(=O)C(C)=C/C=C\C(C)C(O)C(C)C1O)OCO2` (stereo not given), the GI50 (RPMI-8226) is reported as 18.4 µM (inactive), the GI50 (NCI-H23) is reported as 24.9 µM (inactive) and the GI50 (IGROV-1) is reported as 42.1 µM (inactive). The GI50 (Hs-578T) was 61.2 µM (inactive), the GI50 (U-251) was 45.4 µM (inactive) and the GI50 (NCI-H460) was 67.5 µM (inactive). For the same compound, the GI50 (Malme-3M) was 16.2 µM (inactive), the GI50 (NCI-H522) was 16 µM (inactive) and the GI50 (HOP-92) was 14.9 µM (inactive). The GI50 (HCT-116) was 31.8 µM (inactive), the GI50 (SK-MEL-5) was 19.9 µM (inactive) and the GI50 (COLO 205) was 19.9 µM (inactive). The GI50 (SK-MEL-28) was 22.3 µM (inactive), the GI50 (DU-145) was 57.7 µM (inactive) and the GI50 (OVCAR-3) was 18.6 µM (inactive). The GI50 (HOP-62) was > 100 µM (inactive), the GI50 (RXF 393) was 24.9 µM (inactive) and the GI50 (PC-3) was 22.8 µM (inactive). For the same compound, the GI50 (MDA-MB-435) was 15.7 µM (inactive) and the GI50 (NCI-H226) was 55.2 µM (inactive).

In the case of `O=C(O)[C@@H]1NC[C@H]2C(Br)=NO[C@H]21`, the GI50 (RPMI-8226) is reported as > 100 µM (inactive), the GI50 (NCI-H23) is reported as > 100 µM (inactive) and the GI50 (IGROV-1) is reported as > 100 µM (inactive). For the same compound, the GI50 (Hs-578T) was > 100 µM (inactive), the GI50 (U-251) was > 100 µM (inactive) and the GI50 (NCI-H460) was 78.2 µM (inactive). The GI50 (Malme-3M) was > 100 µM (inactive), the GI50 (NCI-H522) was > 100 µM (inactive) and the GI50 (HOP-92) was > 100 µM (inactive). For the same compound, the GI50 (HCT-116) was > 100 µM (inactive), the GI50 (SK-MEL-5) was 69.5 µM (inactive) and the GI50 (COLO 205) was > 100 µM (inactive). The GI50 (SK-MEL-28) was > 100 µM (inactive), the GI50 (DU-145) was > 100 µM (inactive) and the GI50 (OVCAR-3) was > 100 µM (inactive). The GI50 (HOP-62) was > 100 µM (inactive), the GI50 (RXF 393) was > 100 µM (inactive) and the GI50 (PC-3) was > 100 µM (inactive). For the same compound, the GI50 (MDA-MB-435) was > 100 µM (inactive) and the GI50 (NCI-H226) was > 100 µM (inactive).

With `C/C(=N\Nc1nc2ccccc2o1)c1ccncn1` the GI50 (RPMI-8226) was 0.109 µM (active), the GI50 (NCI-H23) was 0.36 µM (active) and the GI50 (IGROV-1) was 0.116 µM (active). For the same compound, the GI50 (Hs-578T) was 0.955 µM (active), the GI50 (U-251) was 0.162 µM (active) and the GI50 (NCI-H460) was 0.0964 µM (active). For the same compound, the GI50 (Malme-3M) was 0.124 µM (active), the GI50 (NCI-H522) was 0.0419 µM (active) and the GI50 (HOP-92) was 0.124 µM (active). For the same compound, the GI50 (HCT-116) was 0.0713 µM (active), the GI50 (SK-MEL-5) was 0.181 µM (active) and the GI50 (COLO 205) was 0.0427 µM (active). For the same compound, the GI50 (SK-MEL-28) was 0.513 µM (active), the GI50 (DU-145) was 1.26 µM (inactive) and the GI50 (OVCAR-3) was 0.0524 µM (active). For the same compound, the GI50 (HOP-62) was 0.228 µM (active), the GI50 (RXF 393) was 2.29 µM (inactive) and the GI50 (PC-3) was 0.31 µM (active). The GI50 (MDA-MB-435) was 0.247 µM (active) and the GI50 (NCI-H226) was 0.228 µM (active).
